According to article PMC8780580, “The Neuroactive Steroid Pregnanolone Glutamate: Anticonvulsant Effect, Metabolites and Its Effect on Neurosteroid Levels in Developing Rat Brains” (Pharmaceuticals, 2021):
Counter-ions that a name gives are not always drawn.

Tests used:
[1] = Steroidomic (GC-MS/MS) analysis of hippocampal tissue after PA-G administration; settings: for measurable concentration in the rat brain / increase in concentration compared with basal levels: after PA-G i.p.; for fold increase in the concentration in the rat hippocampus above the basal levels / percentage of total significantly increased (5β) steroids in the rat hippocampus / concentration at 20 min: 20 min after PA-G i.p., 1 mg/kg in CDX; for concentration at 20 min: male, Wistar, rat, in vivo, ip, Steroid concentration in hippocampal tissue, PA-G-Treated (P);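 as to all read-outs here: hippocampal steroids quantified by GC-MS/MS, covering free and conjugated forms after hydrolysis, compared against intact rats and rats injected with CDX vehicle alone, five animals per group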
Procedure: In a separate experiment, samples of the hippocampus were obtained from male albino Wistar rats in 6 experimental groups consisting of P12 and P25 animals that were either intact (I), controls (C, i.p. application of a solution of CDX), or in the experimental group (i.p. application of PA-G in a solution of CDX at a dose of 1 mg/kg). Each group consisted of 5 animals. The animals were sacrificed using ether anaesthesia (Penta, Czech Republic) 30 min after administration of the drug. The hippocampi were quickly removed, weighed, and frozen at −80 °C in sterile plastic microvials until analysis.
An amount of 17–100 mg of the hippocampal tissue was minced and then administered into screw-cap tubes. Next, 2 mL of methanol with a mixture of internal standards was added, and the samples were incubated for 1 week in a refrigerator at 4 °C with agitation for 2 min once a day. Afterwards, the extract was transferred into new screw-cap tubes and dried in a vacuum centrifuge at 45 °C. After that, 1 mL of water of chromatographic purity was added, and the samples were further treated as described in our recently published paper [76].
Briefly, the unconjugated steroids were extracted from a testing sample with diethyl-ether, the extract was dried, and the lipids were separated by partitioning between a mixture of methanol with water (4:1, v/v) and pentane. The pentane phase was discarded, and the polar phase was dried and used for further analysis of the unconjugated steroids. Steroid conjugates remaining in the polar residue after diethyl ether were hydrolyzed to their parent hydroxy steroids (unconjugated molecules) and analyzed.

[2] = system: pentylenetetrazol-induced seizures; experiment: Pentylenetetrazol (PTZ)-induced seizures in 12- and 25-day-old rats; assay type: in vivo, male Wistar albino rats; settings: for incidence of generalized seizures (GS): i.p. 20 mg/kg (highest dose tested)
Procedure: Solutions of PA-G and PA-S were administered intraperitoneally at a concentration of 1 mg/mL, and doses of 1, 5, 10, and 20 mg/kg were used. The solutions of zuranolone were administered intraperitoneally at a concentration of 1 mg/mL, and doses of 0.5, 1, 5, and 10 mg/kg were used. Controls were injected with CDX solution in a volume corresponding to the highest dose (i.e., 20 mL/kg). The same control group was used for PA-S and PA-G. Pentylenetetrazol (PTZ, Sigma Aldrich, Gillingham, Dorset, UK) was dissolved in water in a concentration of 50 mg/mL and was administered subcutaneously at a dose of 100 mg/kg 20 min after the administration of PA-G or PA-S. Each age and dose group comprised 8 animals. The rats were placed individually into plexiglass boxes and were then observed for 30 min after PTZ injection. The incidence, severity, and latencies of seizures were assessed. Younger animals were placed on a pad heated to 34 °C, i.e., to the temperature in the nest for the whole duration of the experiment because of immature thermoregulation. Generalized tonic-clonic or clonic seizures with a loss of righting reflexes were present after a dose of 100 mg/kg of PTZ in all control animals in both age groups. […] The severity of seizures was quantified using a five-point scale as follows: 0—no changes; 0.5—abnormal behaviour (e.g., automatisms, increased orienting reaction); 1—isolated myoclonic jerks; 2—atypical or prolonged minimal seizures; 3—clonic seizures (mS) involving head and forelimb muscles with preserved righting reflexes (older-term minimal pentetrazol seizures); 4—generalized seizures without the tonic phase (GCS); 5—complete generalized tonic-clonic seizures (GTCS).

NMDARs = settings: NMDA-induced currents, transfected HEK293 cells; cited from earlier work
GABAARs = system: GABAARs; set-up: method as in PMID 29886074; settings: isolated pyramidal neurons of the rat hippocampus, cited from earlier work
[3] = P12 rats, i.p. doses of 5 and 10 mg/kg

Molecule	fold increase in the concentration in the rat hippocampus above the basal levels ([1]; P12) [x]	percentage of total significantly increased (5β) steroids in the rat hippocampus ([1]; P12) [%]	fold increase in the concentration in the rat hippocampus above the basal levels ([1]; P25) [x]	percentage of total significantly increased (5β) steroids in the rat hippocampus ([1]; P25)	concentration at 20 min ([1]; 1 mg/kg, 12-day-old rats) [ng/g]	concentration at 20 min ([1]; 1 mg/kg, 25-day-old rats) [ng/g]	other results
17α-hydroxyprogesterone							measurable concentration in the rat brain ([1]; 1 mg/kg): did not detect measurable concentrations
CC(=O)[C@H]1CC[C@H]2[C@@H]3CC[C@@H]4C[C@H](O)CC[C@]4(C)[C@H]3CC[C@]12C [PA, pregnanolone]	272	9.47	12.8	9.30%	63.6	5.02	increase in concentration compared with basal levels ([1]; P12 animals, 1 mg/kg): up to 272 fold; percentage of the brain's total 5β-steroids in the hippocampus after PA-G administration ([1]; stated over P12 and P25 animals, 20 min after PA-G): approximately 10%
CC(=O)[C@@]1(O)CC[C@H]2[C@@H]3CC[C@@H]4C[C@H](OC(=O)[C@@H](N)CCC(=O)O)CC[C@]4(C)[C@H]3CC[C@@]21C [17-Hydroxypregnanolone glutamate]	84.6	0.04	14.7	0.015%			
CC(=O)[C@H]1CC[C@H]2[C@@H]3CC[C@@H]4C[C@H](OS(=O)(=O)O)CC[C@]4(C)[C@H]3CC[C@]12C [PA-S, pyridinium 20-oxo-5β-pregnan-3α-yl sulfate]							incidence of generalized seizures (GS) ([2]; P12 rats): completely eliminated GS; seizure severity ([2]; P12 rats, i.p. doses of 5 mg/kg and higher, 20 min before PTZ 100 mg/kg s.c.): significant decrease in seizure severity; latencies of GS [2, 3]: significantly prolonged the latencies of GS; tonic phase (TP) of GTCS [2, 3]: completely abolished TP; parameters of minimal seizures (mS) ([2]; P25 rats): did not affect any parameters of mS; tonic phase (TF) of GTCS ([2]; P25 rats): did not exhibit specific effects against the TF of GTCS; incidence of GS ([2]; P25 rats, chi2 test over dose groups, Fisher's tests no differences between individual groups): affected the incidence of GS; seizure severity (score) ([2]; P25 rats, i.p. 20 mg/kg): lower score; IC50 (NMDARs): 24 µM
C[C@]12CC[C@H](OS(=O)(=O)O)CC1=CCC1C2CC[C@@]2(C)C1CC[C@@H]2O (stereo partly drawn) [Androstenediol sulfate, androstenediol sulfate]					6.07	1.62	
C[C@H](O)[C@H]1CC[C@H]2[C@@H]3CC[C@@H]4C[C@H](OC(=O)[C@@H](N)CCC(=O)O)CC[C@]4(C)[C@H]3CC[C@]12C [(20S)-Hydroxypregnanolone glutamate]	99.7	0.53	10.2	0.93%			
CC(=O)[C@H]1CC[C@H]2[C@@H]3CC[C@H]4C[C@H](O)CC[C@]4(C)[C@H]3CC[C@]12C [Allopregnanolone, allopregnanolone]					0.246	0.144	
CC(=O)[C@H]1CCC2C3CC[C@@H]4C[C@H](OC(=O)[C@@H](N)CCC(=O)O)CC[C@]4(C)C3CC[C@@]21C (stereo partly drawn) [PA-G, 20-oxo-5β-pregnan-3α-yl L-glutamyl 1-ester]	199	6.04	9.76	10.8%			latencies of GS ([2]; P12 rats, Kruskal-Wallis over dose groups): increase in the latencies of GS; incidence of generalized seizures (GS) ([2]; P12 rats): prevented the development of GS in all animals; seizure severity ([2]; P12 rats, i.p. 1, 5, 10, 20 mg/kg, Kruskal-Wallis over dose groups): suppressed seizure severity; tonic phase (TP) of GTCS [2, 3]: completely abolished TP; seizure severity ([2]; P25 rats, Kruskal-Wallis over dose groups): affected seizure severity; latencies of GS ([2]; P25 rats, i.p. 10 mg/kg): prolonged; incidence of GTCS ([2]; P25 rats, i.p. 20 mg/kg): completely suppressed these seizures; seizure severity (score) ([2]; P25 rats, i.p. 20 mg/kg): decreased score; IC50 (NMDARs): 73 µM; maximum potentiation of IGABA peak amplitude (GABAARs): up to 422%; EC50 (GABAARs; read-out: EC50 (increase of IGABA peak)): 7 µM
CC(=O)[C@@]1(O)CCC2C3CC[C@H]4C[C@H](O)CC[C@]4(C)C3CC[C@@]21C (stereo partly drawn) [17-Hydroxyallopregnanolone]					8.36	3.19	
C[C@]12CC[C@H]3[C@@H](CC=C4C[C@@H](O)CC[C@@]43C)[C@@H]1CC[C@@H]2O [Androstenediol, androstenediol]					0.758	0.364	
C[C@H](O)[C@H]1CCC2C3CC[C@@H]4C[C@H](O)CC[C@]4(C)C3CC[C@@]21C (stereo partly drawn) [3α,20α-Dihydroxy-5β-pregnane]	78.1	1.23	15.7	1.72%	8.42	0.919	
CC(=O)[C@H]1CCC2C3CC=C4C[C@@H](O)CC[C@]4(C)C3CC[C@@]21C (stereo partly drawn) [Pregnenolone (PE), pregnenolone]					4.69	3.44	
CC(=O)[C@H]1CCC2C3CC[C@@H]4CC(=O)CC[C@]4(C)C3CC[C@@]21C (stereo partly drawn) [5β-Dihydroprogesterone, 5β-dihydroprogesterone]	19	0.07	1.9	0.09%	0.477	0.0943	
C[C@]12CC[C@@H](O)C[C@H]1CC[C@@H]1[C@@H]2CC[C@]2(C)C(=O)CC[C@@H]12 [Etiocholanolone (ETIO), etiocholanolone]		0.1		0.08%			increase in concentration compared with basal levels ([1]; P12 animals, 1 mg/kg): ~12 fold; increase in concentration compared with basal levels ([1]; P25 animals, 1 mg/kg): ~2 fold
CC(=O)[C@@]1(O)CC[C@H]2[C@@H]3CC=C4CCCC[C@]4(C)[C@H]3CC[C@@]21C [17α-hydroxypregn-5-en-20-one]							measurable concentration in the rat brain ([1]; 1 mg/kg): did not detect measurable concentrations
C[C@]12CC[C@@H](O)C[C@H]1CC[C@@H]1[C@@H]2[C@@H](O)C[C@]2(C)[C@@H](C(=O)CO)CC[C@@H]12 [3α,5β-THCC, 3α,5β-tetrahydrocorticosterone]	4.47		1	less than 0.01%			percentage of total significantly increased (5β) steroids in the rat hippocampus ([1]; P12, 1 mg/kg): approximately 8%; percentage of total significantly increased (5β) steroids in the rat hippocampus ([1]; P12, listed as 3α,5β-Tetrahydrocorticosterone (3α,5β-THCC), 1 mg/kg): 8.12%
C[C@]12CC[C@H](O)CC1=CC[C@@H]1[C@@H]2CC[C@]2(C)C(=O)CC[C@@H]12 [Dehydroepiandrosterone (DHEA), dehydroepiandrosterone]					1.13	0.644	
C[C@H](O)[C@@]1(O)CCC2C3CC[C@@H]4C[C@H](O)CC[C@]4(C)C3CC[C@@]21C (stereo partly drawn) [3α,17α,20α-Trihydroxy-5β-pregnane]	9.16	0.74	2.39	1.05%	5.86	0.951	
